Laboratory results published in PMC10879502, “Linking ATP and allosteric sites to achieve superadditive binding with bivalent EGFR kinase inhibitors” (Communications Chemistry, 2024).

How the values were obtained:
WT EGFR kinase domain = biological target: T1, WT EGFR kinase domain (Homo sapiens, UniProt P00533); assay: HTRF KinEASE-TK kinase activity assay; assay type: biochemical; settings: enzyme 10 nM, ATP 100 µM; read-out: Biochemical EGFR IC50, WT
T1 construct: The EGFR kinase domain (residues 696–1022) was cloned into pTriEx; 6xHis (N, cleaved yes); GST (N, cleaved yes); made in house; host or cells: SF9 insect cells, baculovirus

[1] = biological target: T2, ABL1(F317I)-nonphosphorylated (Homo sapiens, UniProt P00519, F317I); assay: KINOMEscan; assay type: binding; settings: 1 μM
T2 construct: purchased Eurofins DiscoverX Corporation

[2] = biological target: T3, ABL1(M351T)-phosphorylated (Homo sapiens, UniProt P00519, M351T); assay: KINOMEscan; assay type: binding; settings: 1 μM
T3 construct: purchased Eurofins DiscoverX Corporation

[3] = biological target: T4, ABL1(T315I)-phosphorylated (Homo sapiens, UniProt P00519, T315I); assay: KINOMEscan; assay type: binding; settings: 1 μM
T4 construct: purchased Eurofins DiscoverX Corporation

AURKA = AURKA (Homo sapiens, UniProt O14965); assay: KINOMEscan; assay type: binding; settings: 1 μM
AURKB = AURKB (Homo sapiens, UniProt Q96GD4); assay: KINOMEscan; assay type: binding; settings: 1 μM
CAMK1B = biological target: T5, CAMK1B (Homo sapiens, UniProt Q6P2M8); assay: KINOMEscan; assay type: binding; settings: 1 μM
T5 construct: purchased Eurofins DiscoverX Corporation (KINOMEscan)

CAMK1G = biological target: T6, CAMK1G (Homo sapiens, UniProt Q96NX5); assay: KINOMEscan; assay type: binding; settings: 1 μM
T6 construct: purchased Eurofins DiscoverX Corporation (KINOMEscan)

CAMK2B = biological target: T7, CAMK2B (Homo sapiens, UniProt Q13554); assay: KINOMEscan; assay type: binding; settings: 1 μM
T7 construct: purchased Eurofins DiscoverX Corporation (KINOMEscan)

CDKL1 = CDKL1 (Homo sapiens, UniProt Q00532); assay: KINOMEscan; assay type: binding; settings: 1 μM
CSK = CSK (Homo sapiens, UniProt P41240); assay: KINOMEscan; assay type: binding; settings: 1 μM
CSNK1A1 = CSNK1A1 (Homo sapiens, UniProt P48729); assay: KINOMEscan; assay type: binding; settings: 1 μM
CSNK2A2 = biological target: T8, CSNK2A2 (Homo sapiens, UniProt P19784); assay: KINOMEscan; assay type: binding; settings: 1 μM
T8 construct: purchased Eurofins DiscoverX Corporation

DMPK2 = biological target: T9, DMPK2 (Homo sapiens, UniProt Q6DT37); assay: KINOMEscan; assay type: binding; settings: 1 μM
T9 construct: purchased Eurofins DiscoverX Corporation

EGFR(L747-T751del+Sins) = assay: KINOMEscan; assay type: binding; settings: 1 μM
EPHA8 = EPHA8 (Homo sapiens, UniProt P29322); assay: KINOMEscan; assay type: binding; settings: 1 μM
ERK1 = ERK1 (Homo sapiens, UniProt P27361); assay: KINOMEscan; assay type: binding; settings: 1 μM
HIPK4 = biological target: T10, HIPK4 (Homo sapiens, UniProt Q8NE63); assay: KINOMEscan; assay type: binding; settings: 1 μM
T10 construct: purchased Eurofins DiscoverX Corporation

IRAK1 = biological target: T11, IRAK1 (Homo sapiens, UniProt P51617); assay: KINOMEscan; assay type: binding; settings: 1 μM
T11 construct: purchased Eurofins DiscoverX (KINOMEscan)

KIT = biological target: T12, KIT (Homo sapiens, UniProt P10721); assay: KINOMEscan; assay type: binding; settings: 1 μM
T12 construct: purchased Eurofins DiscoverX (KINOMEscan)

KIT(D816V) = biological target: T13, KIT(D816V) (Homo sapiens, UniProt P10721, D816V); assay: KINOMEscan; assay type: binding; settings: 1 μM
T13 construct: purchased Eurofins DiscoverX (KINOMEscan)

KIT(V559D+V654A) = biological target: T14, KIT(V559D+V654A) (Homo sapiens, UniProt P10721, V559D/V654A); assay: KINOMEscan; assay type: binding; settings: 1 μM
T14 construct: purchased Eurofins DiscoverX Corporation

LIMK2 = biological target: T15, LIMK2 (Homo sapiens, UniProt P53671); assay: KINOMEscan; assay type: binding; settings: 1 μM
T15 construct: purchased Eurofins DiscoverX Corporation

MEK3 = biological target: T16, MEK3 (Homo sapiens, UniProt P46734); assay: KINOMEscan; assay type: binding; settings: 1 μM
T16 construct: purchased Eurofins DiscoverX Corporation

MKNK1 = biological target: T17, MKNK1 (Homo sapiens, UniProt Q9BUB5); assay: KINOMEscan; assay type: binding; settings: 1 μM
T17 construct: purchased Eurofins DiscoverX Corporation

MKNK2 = biological target: T18, MKNK2 (Homo sapiens, UniProt Q9HBH9); assay: KINOMEscan; assay type: binding; settings: 1 μM
T18 construct: purchased Eurofins DiscoverX Corporation

MRCKA = biological target: T19, MRCKA (Homo sapiens, UniProt Q5VT25); assay: KINOMEscan; assay type: binding; settings: 1 μM
T19 construct: purchased Eurofins DiscoverX Corporation

NEK7 = NEK7 (Homo sapiens, UniProt Q8TDX7); assay: KINOMEscan; assay type: binding; settings: 1 μM
PAK4 = PAK4 (Homo sapiens, UniProt O96013); assay: KINOMEscan; assay type: binding; settings: 1 μM
PFPK5(P.falciparum) = PFPK5(P.falciparum) (Plasmodium falciparum, UniProt P61075); assay: KINOMEscan; assay type: binding; settings: 1 μM
PIK3CA(E545A) = PIK3CA(E545A) (Homo sapiens, UniProt P42336, E545A); assay: KINOMEscan; assay type: binding; settings: 1 μM
PKAC-alpha = PKAC-alpha (Homo sapiens, UniProt P17612); assay: KINOMEscan; assay type: binding; settings: 1 μM
PKMYT1 = PKMYT1 (Homo sapiens, UniProt Q99640); assay: KINOMEscan; assay type: binding; settings: 1 μM
PLK3 = PLK3 (Homo sapiens, UniProt Q9H4B4); assay: KINOMEscan; assay type: binding; settings: 1 μM
PRKD1 = PRKD1 (Homo sapiens, UniProt Q15139); assay: KINOMEscan; assay type: binding; settings: 1 μM
PRKG1 = PRKG1 (Homo sapiens, UniProt Q13976); assay: KINOMEscan; assay type: binding; settings: 1 μM
[4] = biological target: RPS6KA5(Kin.Dom.2-C-terminal) (Homo sapiens, UniProt O75582); assay: KINOMEscan; assay type: binding; settings: 1 μM
SLK = SLK (Homo sapiens, UniProt Q9H2G2); assay: KINOMEscan; assay type: binding; settings: 1 μM
SRPK2 = SRPK2 (Homo sapiens, UniProt P78362); assay: KINOMEscan; assay type: binding; settings: 1 μM
STK36 = STK36 (Homo sapiens, UniProt Q9NRP7); assay: KINOMEscan; assay type: binding; settings: 1 μM

T9 sequence (Q6DT37 whole entry): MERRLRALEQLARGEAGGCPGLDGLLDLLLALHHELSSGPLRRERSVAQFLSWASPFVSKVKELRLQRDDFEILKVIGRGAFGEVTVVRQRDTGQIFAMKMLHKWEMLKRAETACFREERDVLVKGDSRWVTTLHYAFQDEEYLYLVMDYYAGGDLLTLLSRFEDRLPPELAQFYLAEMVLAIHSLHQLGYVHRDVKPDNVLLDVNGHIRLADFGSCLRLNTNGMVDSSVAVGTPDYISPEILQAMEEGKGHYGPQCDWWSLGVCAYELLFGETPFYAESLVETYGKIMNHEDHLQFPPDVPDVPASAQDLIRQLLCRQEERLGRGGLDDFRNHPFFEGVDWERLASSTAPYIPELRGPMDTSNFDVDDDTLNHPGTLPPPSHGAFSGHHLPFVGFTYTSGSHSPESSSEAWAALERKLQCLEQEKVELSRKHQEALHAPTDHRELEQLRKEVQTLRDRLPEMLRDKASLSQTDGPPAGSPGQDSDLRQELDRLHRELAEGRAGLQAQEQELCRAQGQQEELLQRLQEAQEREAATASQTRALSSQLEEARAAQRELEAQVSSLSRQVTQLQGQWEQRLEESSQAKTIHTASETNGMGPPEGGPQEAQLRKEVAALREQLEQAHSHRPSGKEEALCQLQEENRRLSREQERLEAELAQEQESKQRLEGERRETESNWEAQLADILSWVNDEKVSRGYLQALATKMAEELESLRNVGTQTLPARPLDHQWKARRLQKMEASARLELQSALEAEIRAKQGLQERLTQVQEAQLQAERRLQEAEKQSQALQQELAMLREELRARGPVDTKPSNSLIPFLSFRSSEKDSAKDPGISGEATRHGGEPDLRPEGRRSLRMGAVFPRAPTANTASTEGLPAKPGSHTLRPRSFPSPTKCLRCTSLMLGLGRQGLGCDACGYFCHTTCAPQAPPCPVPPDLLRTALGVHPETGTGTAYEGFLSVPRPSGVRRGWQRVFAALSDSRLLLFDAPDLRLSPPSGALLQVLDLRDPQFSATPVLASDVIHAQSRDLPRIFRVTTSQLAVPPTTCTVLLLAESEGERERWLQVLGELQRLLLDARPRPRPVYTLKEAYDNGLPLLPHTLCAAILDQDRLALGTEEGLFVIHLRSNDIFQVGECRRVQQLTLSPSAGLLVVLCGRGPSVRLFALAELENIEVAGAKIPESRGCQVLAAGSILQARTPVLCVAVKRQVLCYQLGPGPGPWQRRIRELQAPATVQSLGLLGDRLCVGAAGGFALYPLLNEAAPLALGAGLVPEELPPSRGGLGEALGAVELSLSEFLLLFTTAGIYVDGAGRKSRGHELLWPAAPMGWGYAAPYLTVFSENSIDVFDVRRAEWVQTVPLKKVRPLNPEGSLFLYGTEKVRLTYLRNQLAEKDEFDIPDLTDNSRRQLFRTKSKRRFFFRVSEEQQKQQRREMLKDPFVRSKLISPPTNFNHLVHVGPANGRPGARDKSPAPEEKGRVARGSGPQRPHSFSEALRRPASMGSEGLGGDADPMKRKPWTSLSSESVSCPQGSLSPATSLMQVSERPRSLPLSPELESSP
Sequence of PLK3 (Q9H4B4 whole entry): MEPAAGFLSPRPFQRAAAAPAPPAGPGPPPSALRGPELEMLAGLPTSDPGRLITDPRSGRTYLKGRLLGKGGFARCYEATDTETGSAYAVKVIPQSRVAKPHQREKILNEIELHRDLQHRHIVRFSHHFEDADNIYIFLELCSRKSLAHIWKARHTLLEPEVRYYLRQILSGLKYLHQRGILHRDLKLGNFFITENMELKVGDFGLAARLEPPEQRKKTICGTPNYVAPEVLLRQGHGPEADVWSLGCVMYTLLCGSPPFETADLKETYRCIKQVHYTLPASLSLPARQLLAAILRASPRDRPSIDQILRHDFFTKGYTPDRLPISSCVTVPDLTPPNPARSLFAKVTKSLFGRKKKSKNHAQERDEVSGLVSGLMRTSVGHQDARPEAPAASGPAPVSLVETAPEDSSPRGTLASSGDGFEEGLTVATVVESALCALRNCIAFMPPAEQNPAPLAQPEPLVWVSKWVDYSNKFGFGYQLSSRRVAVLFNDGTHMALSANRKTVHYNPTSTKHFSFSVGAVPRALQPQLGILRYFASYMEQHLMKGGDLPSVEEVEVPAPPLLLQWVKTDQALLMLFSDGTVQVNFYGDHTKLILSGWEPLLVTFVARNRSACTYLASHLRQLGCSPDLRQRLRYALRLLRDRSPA
Sequence of SLK (Q9H2G2 whole entry): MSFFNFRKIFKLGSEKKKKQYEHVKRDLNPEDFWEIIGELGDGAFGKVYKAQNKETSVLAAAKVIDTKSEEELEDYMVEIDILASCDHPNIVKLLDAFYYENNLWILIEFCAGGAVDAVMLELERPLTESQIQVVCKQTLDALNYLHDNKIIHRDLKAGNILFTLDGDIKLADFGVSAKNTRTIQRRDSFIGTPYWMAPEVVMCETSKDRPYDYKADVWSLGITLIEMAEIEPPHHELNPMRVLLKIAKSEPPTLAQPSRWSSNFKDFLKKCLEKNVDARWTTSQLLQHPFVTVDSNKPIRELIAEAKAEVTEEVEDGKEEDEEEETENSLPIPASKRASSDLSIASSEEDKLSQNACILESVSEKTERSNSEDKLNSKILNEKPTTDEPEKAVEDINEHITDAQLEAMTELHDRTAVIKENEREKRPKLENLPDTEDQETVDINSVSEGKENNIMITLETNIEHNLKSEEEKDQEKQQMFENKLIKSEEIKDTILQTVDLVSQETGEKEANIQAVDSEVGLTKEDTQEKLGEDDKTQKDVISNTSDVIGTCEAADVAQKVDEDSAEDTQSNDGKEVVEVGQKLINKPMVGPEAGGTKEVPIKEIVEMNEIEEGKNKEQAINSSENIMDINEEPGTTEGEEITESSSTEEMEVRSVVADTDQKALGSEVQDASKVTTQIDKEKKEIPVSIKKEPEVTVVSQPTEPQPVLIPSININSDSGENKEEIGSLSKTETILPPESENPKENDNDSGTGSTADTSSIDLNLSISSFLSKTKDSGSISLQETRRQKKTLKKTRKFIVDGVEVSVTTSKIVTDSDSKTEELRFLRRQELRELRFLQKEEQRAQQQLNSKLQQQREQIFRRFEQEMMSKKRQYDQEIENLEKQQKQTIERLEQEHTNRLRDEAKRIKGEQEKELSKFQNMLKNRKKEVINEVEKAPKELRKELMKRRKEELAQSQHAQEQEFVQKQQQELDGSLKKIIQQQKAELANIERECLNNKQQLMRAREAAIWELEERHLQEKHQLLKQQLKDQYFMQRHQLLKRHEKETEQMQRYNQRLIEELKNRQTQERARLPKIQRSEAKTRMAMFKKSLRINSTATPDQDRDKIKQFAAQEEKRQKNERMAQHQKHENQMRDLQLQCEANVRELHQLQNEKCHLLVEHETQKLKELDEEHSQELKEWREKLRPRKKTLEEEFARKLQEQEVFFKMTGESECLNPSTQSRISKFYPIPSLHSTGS
T16 sequence (P46734 whole entry): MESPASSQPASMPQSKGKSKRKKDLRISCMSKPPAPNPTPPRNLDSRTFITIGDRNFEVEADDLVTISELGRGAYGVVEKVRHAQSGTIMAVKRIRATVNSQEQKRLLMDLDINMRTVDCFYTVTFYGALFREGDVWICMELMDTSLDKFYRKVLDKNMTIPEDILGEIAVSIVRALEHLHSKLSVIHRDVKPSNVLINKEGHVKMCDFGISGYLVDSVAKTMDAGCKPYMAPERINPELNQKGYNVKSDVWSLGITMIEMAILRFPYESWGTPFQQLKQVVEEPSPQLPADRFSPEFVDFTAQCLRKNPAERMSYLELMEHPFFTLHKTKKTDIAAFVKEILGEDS
Sequence of CSNK1A1 (P48729 whole entry): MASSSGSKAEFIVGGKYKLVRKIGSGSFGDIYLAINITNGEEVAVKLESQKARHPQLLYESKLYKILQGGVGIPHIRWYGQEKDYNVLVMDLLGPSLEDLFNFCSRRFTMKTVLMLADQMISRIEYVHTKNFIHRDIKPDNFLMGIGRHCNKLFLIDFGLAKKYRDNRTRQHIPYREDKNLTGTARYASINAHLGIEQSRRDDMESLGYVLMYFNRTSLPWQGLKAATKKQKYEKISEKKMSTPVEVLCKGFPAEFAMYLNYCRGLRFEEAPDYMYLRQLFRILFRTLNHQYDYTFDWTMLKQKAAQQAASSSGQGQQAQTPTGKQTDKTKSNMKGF
Sequence of ERK1 (P27361 whole entry): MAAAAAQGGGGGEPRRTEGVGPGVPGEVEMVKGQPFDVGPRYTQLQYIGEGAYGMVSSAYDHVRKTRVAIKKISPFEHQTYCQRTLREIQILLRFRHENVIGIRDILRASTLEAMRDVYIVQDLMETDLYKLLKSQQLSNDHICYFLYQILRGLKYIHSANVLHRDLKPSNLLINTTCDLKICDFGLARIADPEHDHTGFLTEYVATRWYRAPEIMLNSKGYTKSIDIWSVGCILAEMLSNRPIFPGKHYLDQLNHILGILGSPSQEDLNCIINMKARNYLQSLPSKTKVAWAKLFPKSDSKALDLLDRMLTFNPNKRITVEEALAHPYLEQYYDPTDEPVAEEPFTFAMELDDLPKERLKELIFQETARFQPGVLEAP
Sequence of AURKA (O14965 whole entry): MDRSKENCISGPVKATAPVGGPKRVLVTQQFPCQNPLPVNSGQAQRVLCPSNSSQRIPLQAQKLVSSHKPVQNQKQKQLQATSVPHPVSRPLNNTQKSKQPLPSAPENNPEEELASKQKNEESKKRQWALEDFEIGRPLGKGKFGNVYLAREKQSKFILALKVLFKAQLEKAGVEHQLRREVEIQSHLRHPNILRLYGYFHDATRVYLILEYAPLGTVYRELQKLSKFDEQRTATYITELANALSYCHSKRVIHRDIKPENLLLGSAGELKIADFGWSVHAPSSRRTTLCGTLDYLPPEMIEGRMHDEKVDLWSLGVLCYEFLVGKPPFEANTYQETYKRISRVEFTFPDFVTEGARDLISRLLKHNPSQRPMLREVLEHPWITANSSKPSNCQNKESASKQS

## CSc1nc(-c2cccc(NC(=O)c3cccc4c3NC(=O)c3ccccc3N4)c2)c(-c2ccnc(NC(C)=O)c2)[nH]1 [Compound 2]
WT EGFR kinase domain
  IC50: < 0.01 µM

## C=CC(=O)Nc1ccc(OC)c(Nc2cc(-c3[nH]c(CC)nc3-c3cccc(NC(=O)c4cccc5c4NC(=O)c4ccccc4N5)c3)ccn2)c1 [Compound 4]
[1]
  POC: 40% of control
[2]
  POC: 67% of control
[3]
  POC: 100% of control
AURKA
  POC: 90% of control
AURKB
  POC: 100% of control
CAMK1B
  POC: 94% of control
CAMK1G
  POC: 100% of control
CAMK2B
  POC: 72% of control
CDKL1
  POC: 100% of control
CSK
  POC: 14% of control
CSNK1A1
  POC: 56% of control
CSNK2A2
  POC: 58% of control
DMPK2
  POC: 0% of control
EGFR(L747-T751del+Sins)
  POC: 7.6% of control
EPHA8
  POC: 98% of control
ERK1
  POC: 99% of control
HIPK4
  POC: 92% of control
IRAK1
  POC: 85% of control
KIT
  POC: 100% of control
KIT(D816V)
  POC: 94% of control
KIT(V559D+V654A)
  POC: 93% of control
LIMK2
  POC: 93% of control
MEK3
  POC: 100% of control
MKNK1
  POC: 100% of control
MKNK2
  POC: 100% of control
MRCKA
  POC: 0% of control
NEK7
  POC: 86% of control
PAK4
  POC: 89% of control
PFPK5(P.falciparum)
  POC: 100% of control
PIK3CA(E545A)
  POC: 100% of control
PKAC-alpha
  POC: 100% of control
PKMYT1
  POC: 99% of control
PLK3
  POC: 87% of control
PRKD1
  POC: 42% of control
PRKG1
  POC: 100% of control
[4]
  POC: 100% of control
SLK
  POC: 100% of control
SRPK2
  POC: 100% of control
STK36
  POC: 30% of control
